Data set [1] deals with Mus musculus. Description: Reduction in […]-induced tactile hypersensitivity in C57BL/6 mouse at 10 ug/kg, ip relative to control. Format: functional. Also on record: scale not given: the % may be the effect or the level left.
In data set [2] the test system is Mus musculus. The experiment in a line: Induction of sedation in C57BL/6 mouse at 100 ug/kg, ip relative to control. In kind it is organism-based. To be noted: in vivo, 0.1 mg/kg.
Data set [3] deals with T1, Alpha-2C adrenergic receptor (Mus musculus, UniProt Q01337).
T1 sequence (Q01337 whole entry): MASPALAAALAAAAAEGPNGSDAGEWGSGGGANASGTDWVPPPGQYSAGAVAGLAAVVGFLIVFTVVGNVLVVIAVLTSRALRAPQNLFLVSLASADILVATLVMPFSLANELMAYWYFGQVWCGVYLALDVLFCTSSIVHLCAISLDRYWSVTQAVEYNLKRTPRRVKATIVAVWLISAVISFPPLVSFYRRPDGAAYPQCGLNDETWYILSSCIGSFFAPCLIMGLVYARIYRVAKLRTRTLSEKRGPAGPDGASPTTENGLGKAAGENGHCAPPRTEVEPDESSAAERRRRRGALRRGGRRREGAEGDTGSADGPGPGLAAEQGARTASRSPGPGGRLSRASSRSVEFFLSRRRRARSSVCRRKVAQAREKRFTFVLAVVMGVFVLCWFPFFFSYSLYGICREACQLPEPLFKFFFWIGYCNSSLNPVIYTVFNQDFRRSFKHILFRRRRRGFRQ
Description: Binding affinity to mouse alpha-2C receptor expressed in COS7 cells. Format: cell-based, COS-7.

Data set [4] addresses T2, Alpha-2A adrenergic receptor (Mus musculus, UniProt Q01338).
T2 sequence (Q01338 whole entry): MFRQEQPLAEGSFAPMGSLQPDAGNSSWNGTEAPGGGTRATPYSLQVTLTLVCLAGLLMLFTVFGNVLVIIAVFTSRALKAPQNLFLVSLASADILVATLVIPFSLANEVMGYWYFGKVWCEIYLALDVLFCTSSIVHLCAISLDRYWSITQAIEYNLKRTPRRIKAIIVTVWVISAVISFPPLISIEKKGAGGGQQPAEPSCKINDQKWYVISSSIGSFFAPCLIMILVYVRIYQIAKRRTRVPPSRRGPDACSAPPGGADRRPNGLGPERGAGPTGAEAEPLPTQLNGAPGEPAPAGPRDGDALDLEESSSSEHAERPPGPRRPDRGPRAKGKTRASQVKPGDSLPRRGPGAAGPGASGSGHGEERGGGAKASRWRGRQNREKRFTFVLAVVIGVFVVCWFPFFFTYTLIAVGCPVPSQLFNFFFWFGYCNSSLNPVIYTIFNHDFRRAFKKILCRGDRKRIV
The experiment in a line: Binding affinity to mouse alpha-2A receptor expressed in COS7 cells. Format: cell-based, COS-7.

Data set [5] concerns Mus musculus. The experiment in a line: Reduction in […]-induced tactile hypersensitivity in C57BL/6 mouse at 1 ug/kg, po relative to control. In kind it is functional. Also on record: scale not given: the % may be the effect or the level left.
For data set [6], the system named is Mus musculus. The experiment in a line: Reduction in […]-induced tactile hypersensitivity in C57BL/6 mouse at 1 ug/kg, ip relative to control. In kind it is functional. Details: scale not given: the % may be the effect or the level left.
Data set [7] has as its system Mus musculus. The experiment in a line: Induction of sedation in C57BL/6 mouse at 0.1 to 1000 ug/kg, po. To be noted: in vivo.
The subject of data set [8] is Mus musculus. The experiment in a line: Reduction in sulprostone-induced tactile hypersensitivity in C57BL/6 mouse at 0.1 to 1000 ug/kg, po. In kind it is functional.
The subject of data set [9] is Mus musculus. The experiment in a line: Induction of sedation in C57BL/6 mouse at 100 to 1000 ug/kg, po relative to control. In kind it is organism-based. To be noted: in vivo.
The test system of data set [10] is Mus musculus. Description: Induction of sedation in C57BL/6 mouse at 100 to 1000 ug/kg, ip relative to control. In kind it is organism-based. To be noted: in vivo.

A word on the Ki: it is the equilibrium dissociation constant of an inhibitor or competing ligand from its target.

Active and inactive are the calls of the source. No cut-off for these calls is given here. A value given as a limit tells only on which side of the number the result lay.

In the case of `OCC1=CCCC(Cc2c[nH]cn2)C1` (stereo not given), the Activity in data set [1] was more than 50%; in data set [2] it was less than 30%.
For `NC[C@H](O)c1ccc(O)c(O)c1` [NOREPINEPHRINE], the Ki in data set [3] stood at 0.65 µM; in data set [4], 5.8 µM.
As for `Cc1cccc([C@H](C)c2c[nH]c(=S)[nH]2)c1C` [REZATOMIDINE], the Activity in data set [5] was 50%; in data set [6], 50%; in [7], “Non-Toxic”; in data set [9], less than 30%; in data set [10] it was less than 30%. Moreover, in [8], the outcome was Active.

The values above are taken from ChEMBL document CHEMBL3882386, “Novel methods for identifying improved, non-sedating alpha-2 agonists” (2005).
